Our source for the TGI and GI50 values is PubChem BioAssay (NCI).

What all share (test): NCI tumour cell line growth inhibition, 48 h
The subject of test [1] is COLO 205 colon.
The test system of test [2] is 786-0 renal.
Test [3] has as its system ACHN renal.
For test [4], the system named is SF-295 CNS.
Test [5] relates to HL-60(TB) leukemia.
Test [6] concerns HCT-15 colon.
The test system of test [7] is PC-3 prostate.
In test [8] the test system is MOLT-4 leukemia.
In test [9] the test system is A498 renal.
For test [10], the system named is SK-MEL-5 melanoma.
Test [11] has as its system MDA-MB-231 breast.
The test system of test [12] is MDA-N.
The test system of test [13] is MCF7 breast.
In test [14] the test system is SK-MEL-28 melanoma.
The subject of test [15] is SNB-75 CNS.
Test [16] has as its system UO-31 renal.

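Protocol summary: plate cells (96-well), add compound at 5 concentrations, incubate 48 h, interpolate endpoints linearly. At the GI50, growth is halved. The concentration for full growth arrest is given as TGI.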

Take `CC1(c2sccc2Cl)CC(c2sccc2Cl)=C(C#N)C(=C(C#N)C#N)N1` (stereo not drawn): the TGI in test [1] is 41.8 µM; in [2], 34.5 µM; in test [3], 32.5 µM; in test [4], 35.2 µM; in test [5], above 100 µM; in test [6], 35 µM. Besides, the TGI in test [7] is 32.8 µM; in [8] it was above 100 µM; in test [9] it was 33.3 µM; in test [10], 33.3 µM; in test [11], 42.9 µM; in test [12], 35 µM. Further, the results for the TGI in [13] and in [14] were 48.5 µM and 34.8 µM, respectively.

As for `CCOC(=O)NN(C(=O)OCC)C(C(=O)C1=CCCCC1)N(NC(=O)OCC)C(=O)OCC`, the TGI in test [1], in [2], in test [3], in test [4], in test [15] and in [6] was above 100 µM throughout. For the same molecule, the TGI in [7], in test [8], in test [16], in test [9], in test [10] and in test [11] was above 100 µM throughout. The TGI in test [12], in test [13] and in test [14] was above 100 µM each time.

Consider `OC1c2ccccc2CCC1CN1CCN(CCOC(c2ccc(F)cc2)c2ccc(F)cc2)CC1` (stereo not drawn), for which the TGI is 3.44 µM in test [1]; 25 µM in test [2]; above 100 µM in test [3]; 46.1 µM in test [4]; 70.5 µM in [15]; 23.4 µM in [6]. Besides, the TGI in [7] is above 100 µM; in [8], above 100 µM; in test [9], 26.9 µM; in test [10], 16.5 µM; in [11] it was 31.6 µM; in test [12], 36.3 µM. Besides, the TGI in [13] was found to be 30.8 µM; in test [14], 26.6 µM.

On to `CCOC(=O)/C=C(\C(=O)OCC)n1ccc(=O)n(Cc2cnnn2CCCCOC(C)=O)c1=O`, for which the TGI was 5.8 µM in [1]; above 37.5 µM in test [2]; 5.52 µM in test [3]; above 59.8 µM in [4]; 31.5 µM in test [15]; 20.3 µM in [6]. The TGI in test [7] was found to be 30.8 µM; in test [8], 5.19 µM; in test [16] it was 36.5 µM; in [9], 37.6 µM; in test [10], 30.2 µM; in test [11], 38.1 µM. Also, the TGI in test [12] was found to be 51.4 µM; in test [13] it was 18.8 µM; in [14], 21.4 µM. The GI50 in test [8] is 2.23 µM.

For the molecule `CSC1(C)C(=O)Nc2c(OCc3ccccc3)cc([N+](=O)[O-])cc21` (stereo not drawn), the TGI in test [1] is above 100 µM; in test [2] it was 31 µM; in [3], above 100 µM; in test [4], above 100 µM; in [5], above 100 µM; in [15] it was 35.7 µM. In addition, the TGI in test [6], in test [7], in test [8], in [9], in test [10] and in test [11] was above 100 µM each time. Besides, the TGI in test [12] is above 100 µM; in test [13] it was 44.1 µM; in [14], above 100 µM.

As to `CCOC(=O)C(NC(=O)c1ccccc1)(Nc1ccc(S(=O)(=O)Nc2ncccn2)cc1)C(F)(F)F` (stereo not drawn), the TGI in test [1], in test [2], in test [3], in test [4], in test [5] and in [15] was above 100 µM each time. In addition, the TGI in test [6], in test [7], in test [8], in test [16], in test [10] and in test [11] was above 100 µM throughout. In addition, the TGI in test [12], in [13] and in [14] was above 100 µM in each case.

For `COCCN(CCNC(=O)c1cccc2c(N)c3cccc(C)c3nc12)CCOC`, the TGI in test [1] is 2.13 µM; in test [2] it was 8.62 µM; in test [3] it was 13.5 µM; in test [4], above 22.9 µM; in test [15] it was 4.75 µM; in [6] it was 13 µM. Moreover, the TGI in test [7] turned out to be 8.9 µM; in test [8], 2.38 µM; in test [9] it was 14.6 µM; in test [10], 2.65 µM; in [11] it was 5.43 µM; in [12] it was 2.75 µM. For the same molecule, the results for the TGI in [13] and in [14] were 23.3 µM and above 41.1 µM, respectively.

`COc1ccccc1Cc1ccc(C2C=CC3(CC(=O)C=C3C)C(=O)C2)o1` (stereo not drawn): the TGI is 50.5 µM in [1]; 41.9 µM in test [2]; above 100 µM in test [3]; 65.9 µM in test [4]; 41.7 µM in test [5]; 81.4 µM in test [6]. Moreover, the TGI in test [7] is 38.3 µM; in test [8], 34.1 µM; in test [16], above 100 µM; in test [9], 47.7 µM; in test [10], 29 µM; in test [11], 50.1 µM. Moreover, the values for the TGI in test [12], in test [13] and in test [14] were 44.2 µM, 34.4 µM and above 100 µM, respectively.

As to `CC1CN=C(NS(=O)(=O)c2cc(C(=O)Nc3ccc(Cl)cc3)c(Cl)cc2S)NN1` (stereo not drawn), the TGI in test [1], in test [2], in test [3], in test [4], in test [5] and in test [6] was above 100 µM throughout. Further, the TGI in [7] was 94 µM; in test [8], above 100 µM; in test [16], above 100 µM; in [9] it was 37.1 µM; in [10], 28.8 µM; in [11] it was above 100 µM. The TGI in [12] was above 100 µM; in test [13] it was above 100 µM; in test [14], 83.9 µM.
